Test results taken from ChEMBL document CHEMBL4619711, “Medicinal Chemistry of Inhibiting RING-Type E3 Ubiquitin Ligases” (J Med Chem, 2020).

What was measured:
[1] = Stability in rat blood assessed as parent compound remaining after 4 hrs; assay type: ADME, tissue-based; details: read-out: Stability
[2] = biological target: T1, E3 ubiquitin-protein ligase XIAP (Homo sapiens, UniProt P98170); test: Inhibition of XIAP-BIR2 domain (unknown origin)
[3] = biological target: T1, E3 ubiquitin-protein ligase XIAP; test: Inhibition of XIAP-BIR3 domain (unknown origin)
[4] = Plasma clearance in mouse at iv dose; assay type: ADME, organism-based
[5] = Oral bioavailability in mouse; assay type: ADME, organism-based; details: in vivo
[6] = biological target: von Hippel-Lindau disease tumor suppressor (Homo sapiens, UniProt P40337); test: Inhibition of VHL (unknown origin) by fluorescence polarization assay
Chain of von Hippel-Lindau disease tumor suppressor (P40337 whole entry): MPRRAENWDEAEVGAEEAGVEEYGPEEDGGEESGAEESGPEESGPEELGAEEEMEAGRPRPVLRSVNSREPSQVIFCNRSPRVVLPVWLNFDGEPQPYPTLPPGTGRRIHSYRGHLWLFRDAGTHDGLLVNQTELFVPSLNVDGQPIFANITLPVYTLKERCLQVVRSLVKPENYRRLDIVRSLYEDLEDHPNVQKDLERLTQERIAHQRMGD

SJSA-1 = test: cells; details: Homo sapiens

T1 sequence (P98170 whole entry, the tested form may be a part): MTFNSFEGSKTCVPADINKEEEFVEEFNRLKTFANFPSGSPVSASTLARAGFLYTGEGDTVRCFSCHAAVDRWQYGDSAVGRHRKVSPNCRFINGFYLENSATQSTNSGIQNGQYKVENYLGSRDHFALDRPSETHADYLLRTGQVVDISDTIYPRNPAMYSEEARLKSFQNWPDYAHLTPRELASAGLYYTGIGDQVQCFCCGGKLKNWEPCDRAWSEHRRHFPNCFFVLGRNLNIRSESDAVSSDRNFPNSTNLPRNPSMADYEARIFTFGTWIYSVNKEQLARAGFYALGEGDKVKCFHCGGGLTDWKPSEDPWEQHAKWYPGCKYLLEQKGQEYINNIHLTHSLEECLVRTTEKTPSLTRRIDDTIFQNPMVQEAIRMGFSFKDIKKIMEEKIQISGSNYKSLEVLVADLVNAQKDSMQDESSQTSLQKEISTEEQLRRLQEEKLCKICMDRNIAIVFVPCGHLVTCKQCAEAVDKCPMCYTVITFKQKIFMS

remaining at 4 h [1] [%] | IC50 [2] [µM] | IC50 [3] [µM] | clearance [4] [mL/min/kg] | SMILES | further results
– | – | – | 4.3 | CN[C@@H](C)C(=O)N[C@@H]1C(=O)N(Cc2c(C)ccc3ccccc23)c2ccc(C#N)cc2N(C(C)=O)[C@H]1C | bioavailability [5]: 28%
7 | – | – | 521 | CN[C@@H](C)C(=O)N[C@H]1COc2ccccc2N(Cc2c(OC)ccc3cc(Br)ccc23)C1=O | –
– | 0.039 | 3.1 | 41 | CN[C@@H](C)C(=O)NC1C(=O)N(Cc2c(C#N)n(-c3ccccc3C#N)c3ccccc23)c2ccccc2CC12CCOCC2 (some centres undefined) | –
88 | 0.065 | 24 | 60 | CN[C@@H](C)C(=O)NC1C(=O)N(Cc2c(OC)ccc3cc(Br)ccc23)c2ccccc2CC12CCOCC2 (some centres undefined) | –

Further lines, the compound ahead of its results:

SMILES | remaining at 4 h [1] [%] | IC50 [2] [µM] | IC50 [3] [µM] | clearance [4] [mL/min/kg] | further results
CN[C@@H](C)C(=O)N[C@H]1CCc2ccccc2N(Cc2c(OC)ccc3cc(Br)ccc23)C1=O | 40 | 0.194 | > 54 | 155 | –
Cc1ncsc1-c1ccc(CNC(=O)[C@@H]2C[C@@H](O)CN2C(=O)c2cccc(N)c2C)cc1 | – | – | – | – | IC50 [6]: 0.67 µM
Cc1cc(CC(=O)N2C[C@H](O)C[C@H]2C(=O)NCc2ccccc2Cl)on1 | – | – | – | – | IC50 [6]: 117 µM
CC(C)(C)C[C@@H]1N[C@@H](C(=O)N[C@H]2CC[C@H](O)CC2)[C@H](c2cccc(Cl)c2F)[C@@]12C(=O)Nc1cc(Cl)ccc12 | – | – | – | – | IC50 (SJSA-1): 0.092 µM
CC(C)(C)C[C@@H]1N[C@@H](C(=O)NCCN2CCOCC2)[C@H](c2cccc(Cl)c2F)[C@@]12C(=O)Nc1cc(Cl)ccc12 | – | – | – | – | IC50 (SJSA-1): 0.5 µM
